Experimental data: PubChem BioAssay AID463199 (Broad Institute, 2010)
Activity calls are given as the source filed them.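 Rule for the calls: active = AC50, the dose giving half-maximal effect, exceeds a fixed cutoff for a compound that rescues yeast growth under heat; inactive = the rest, inconclusive results apart.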

Test system: S. cerevisiae Burl-1 ts mutant growth, BacTiter-Glo, 38.5C 24 h
Test: growth induction of Burl-1 ts yeast mutant, dose response, counter-screen for SUMOylation pathway inhibitor project, whole organism, S. cerevisiae, luminescence (AID 463199)

SMILES	AC50
Cc1ccc(-c2noc(C3CCCN(S(=O)(=O)c4ccc5ccccc5c4)C3)n2)o1 (centres undefined)	> 42 µM (inactive)
COc1ccccc1NC(=O)c1nn(-c2cccc(C(F)(F)F)c2)ccc1=O	12 µM
Cc1ccc(C(=O)N/C(=C\c2cccs2)C(=O)NCc2ccncc2)cc1	> 42 µM (inactive)
COc1ccc2c(c1)OC[C@H]1[C@H]2N2C(=O)c3cc(F)ccc3NC(=O)[C@@]2(C)[C@H]1c1ccccc1	> 42 µM (inactive)
CCOC(=O)NC1(Nc2ccc(C)cc2)Oc2ccccc2O1	> 42 µM (inactive)
CCN1CCN(C(=O)c2ccc3nc(-c4ccccc4)c(-c4ccccc4)nc3c2)CC1	> 42 µM (inactive)
Oc1c(Br)cc(Cl)cc1C=Nc1ccccc1Br	> 42 µM (inactive)
O=C(NNC(=O)c1ccc(-n2cncn2)c([N+](=O)[O-])c1)c1ccc(Cl)cc1	> 42 µM (inactive)
CCCCOC(=O)/C(=C/C=C/c1ccccc1)NC(=O)c1ccccc1	> 42 µM (inactive)
O=C(CN1c2ccccc2Sc2ccccc21)N/N=C/c1ccc(Cl)cc1Cl	> 21 µM (inactive)
Cc1ccc(N2CN(CCc3ccccc3)CNC2=S)cc1	> 42 µM (inactive)
Fc1cccc(Nc2ncnc3sccc23)c1	> 42 µM (inactive)
Cc1ccc(Oc2ccccc2NC(=O)C2=COCCO2)cc1	> 42 µM (inactive)
O=C(COc1ccc(-n2cnnn2)cc1)NCCc1ccc(F)cc1	> 42 µM (inactive)
COc1ccc(C(=O)c2c(C)c3cc(C)ccc3n2CC(O)CN2CCOCC2)cc1 (centres undefined)	> 110 µM (inactive)
Cc1c(C(=O)OCC(=O)Nc2ccc(S(N)(=O)=O)cc2)oc2c1ccc1ccccc12	> 42 µM (inactive)
CC1=C(C(=O)N2CCOCC2)C(c2ccc(O)cc2)NC(=S)N1 (centres undefined)	> 42 µM (inactive)
Cc1sc(NC(=O)CSC2=NCCS2)nc1-c1ccccc1	> 42 µM (inactive)
Cc1noc(C)c1Cc1ccc(O)cc1	> 42 µM (inactive)
COc1ccc(NC(=O)c2cc(S(=O)(=O)Nc3ccc(OC)cc3)cs2)cc1	> 42 µM (inactive)
O=c1[nH]nc(Cc2ccc(-c3ccccc3Cl)o2)c2ccccc12	> 42 µM (inactive)
CCOC(=O)C1=Nc2ccccc2C1=[N+]=[N-]	> 42 µM (inactive)
O=C(NCc1ccccc1Cl)c1ccc2c(c1)OCO2	> 42 µM (inactive)
Cc1cc(C)cc(OC(=O)CS(=O)c2ccc(C(F)(F)F)cc2[N+](=O)[O-])c1 (centres undefined)	> 42 µM (inactive)
CC(C)n1c(O)c(N=Nc2ccccn2)c2ccccc21	> 42 µM (inactive)

SMILES	AC50
CCOC(=O)CCN(c1ccccc1)S(=O)(=O)c1ccc(-c2ccc(=O)[nH]n2)s1	> 42 µM (inactive)
CCOC(=O)Cn1c(=O)oc2cc(S(=O)(=O)NC(C)(C)CC)ccc21	> 42 µM (inactive)
CN1C(=O)/C(=C/c2ccc(OCc3ccccc3F)cc2)NC1=S	> 42 µM (inactive)
CC(C)(C)n1nnnc1C(c1ccc(Cl)cc1)N(Cc1cccnc1)Cc1ccco1 (centres undefined)	> 42 µM (inactive)
CC1C(=O)CC(c2ccccc2)NC1c1ccccc1 (centres undefined)	> 42 µM (inactive)
O=C(CSc1cccc[n+]1[O-])N1CCc2ccccc21	> 42 µM (inactive)
Cc1nn(CCOc2ccccc2)c(=O)n1-c1ccccc1F	> 42 µM (inactive)
COC(=O)C1CN(C#N)N(c2ccc(Cl)cc2)C12c1ccccc1-c1ccccc12 (centres undefined)	> 42 µM (inactive)
CCn1cc(C(=O)N2CCN(c3ccc(OC)cc3)CC2)c(=O)c2cc(S(=O)(=O)N3CCOCC3)ccc21	> 42 µM (inactive)
Cc1ccccc1-n1c(-c2cccnc2)n[nH]c1=S	> 42 µM (inactive)
O=C(O)/C=C/c1cccnc1	> 42 µM (inactive)
COC(=O)CN(C(=S)Nc1ccc(F)cc1)C1CC(=O)N(c2ccccc2)C1=O (centres undefined)	> 42 µM (inactive)
c1ccc(-c2cc3cc4c(cc3cn2)OCO4)cc1	> 42 µM (inactive)
O=C1NC(Cc2c[nH]c3ccccc23)C(=O)N1Cc1ccc(CN2C(=O)NC(Cc3c[nH]c4ccccc34)C2=O)cc1 (centres undefined)	> 42 µM (inactive)
Cc1cccc(C)c1NS(=O)(=O)c1ccc(OCCNS(C)(=O)=O)cc1	> 42 µM (inactive)
CCC1C(c2ccccc2)NC(c2ccccc2)CC1(O)c1ccc(F)cc1 (centres undefined)	> 42 µM (inactive)
COc1cccc(C(=O)N2CCN(S(=O)(=O)Cc3ccccc3)CC2)c1OC	> 42 µM (inactive)
COc1ccc(OCC(=O)Nc2ccc(C)cc2)cc1	> 42 µM (inactive)
COc1ccc(NC(=S)NC(=O)C2CCC2)cc1	> 42 µM (inactive)
Cc1ccccc1Cn1cc(NC(=O)c2cc3nc(-c4ccco4)cc(C(F)(F)F)n3n2)cn1	> 42 µM (inactive)
CN(C)/C(CN1CCCCC1)=C1\N=C(c2ccccc2)OC1=O	> 42 µM (inactive)
COc1ccc(Oc2c(C)oc3cc(OC(=O)N(C)C)ccc3c2=O)cc1	> 42 µM (inactive)
Cc1cccn2c(=O)c3cc(C(=O)NCc4cccnc4)c(=N)n(C(C)C)c3nc12	> 42 µM (inactive)
COC(=O)CNC(=O)CSc1ccccn1	> 42 µM (inactive)
